The values below are quoted from earlier work in paper PMC3401542 (Bioorganic & medicinal chemistry, 2012).

By IC50 is commonly meant the point on the concentration scale where inhibition reaches its midpoint.

This data set concerns N1 NAs. The conditions noted are these: read-out: inhibition (IC50) of N1 NAs; range over N1 NAs; ref [28]; cited from earlier work.

For the compound `CCC(CC)O[C@@H]1C=C(C(=O)O)C[C@H](N)[C@H]1NC(C)=O` [Compound 1c, oseltamivir carboxylate], the IC50 is 0.3 to 0.8 nM.
